In one experiment the target is T1, QsAMT1.2-like (QsAMT1.2) (Quercus suber, UniProt Z9N9G6J3T1).
T1 construct: full-length cDNA from ectomycorrhizal cork oak roots in pDR196, expressed in yeast strain 31019b (mep1 mep2 mep3 deleted)
T1 sequence (Z9N9G6J3T1 1-510): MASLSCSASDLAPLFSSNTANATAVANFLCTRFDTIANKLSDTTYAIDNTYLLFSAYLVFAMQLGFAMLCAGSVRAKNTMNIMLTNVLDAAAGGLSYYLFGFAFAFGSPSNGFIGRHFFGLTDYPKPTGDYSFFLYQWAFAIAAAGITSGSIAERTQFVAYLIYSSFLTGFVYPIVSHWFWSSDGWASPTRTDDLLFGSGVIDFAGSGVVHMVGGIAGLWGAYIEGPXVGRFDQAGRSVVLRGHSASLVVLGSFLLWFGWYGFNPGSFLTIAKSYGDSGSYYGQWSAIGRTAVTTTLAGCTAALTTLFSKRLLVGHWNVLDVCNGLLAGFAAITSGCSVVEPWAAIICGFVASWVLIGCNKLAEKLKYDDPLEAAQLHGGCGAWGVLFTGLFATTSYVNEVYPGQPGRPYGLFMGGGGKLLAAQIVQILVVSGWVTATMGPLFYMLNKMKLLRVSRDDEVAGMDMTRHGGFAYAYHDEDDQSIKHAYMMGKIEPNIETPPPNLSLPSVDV
Kind of experiment: […]-methylammonium uptake in transformed yeast, Michaelis-Menten and Lineweaver-Burk. The format is cell-based. To be noted: labelled compound; yeast 31019b; substrate of the Km taken from the methods; read-out: apparent Km.

The next experiment deals with T2, QsAMT3.2-like (QsAMT3.2) (Quercus suber, UniProt Z9KUH6IWZ3).
T2 construct: full-length cDNA from ectomycorrhizal cork oak roots in pDR196, expressed in yeast strain 31019b (mep1 mep2 mep3 deleted)
T2 sequence (Z9KUH6IWZ3 1-486): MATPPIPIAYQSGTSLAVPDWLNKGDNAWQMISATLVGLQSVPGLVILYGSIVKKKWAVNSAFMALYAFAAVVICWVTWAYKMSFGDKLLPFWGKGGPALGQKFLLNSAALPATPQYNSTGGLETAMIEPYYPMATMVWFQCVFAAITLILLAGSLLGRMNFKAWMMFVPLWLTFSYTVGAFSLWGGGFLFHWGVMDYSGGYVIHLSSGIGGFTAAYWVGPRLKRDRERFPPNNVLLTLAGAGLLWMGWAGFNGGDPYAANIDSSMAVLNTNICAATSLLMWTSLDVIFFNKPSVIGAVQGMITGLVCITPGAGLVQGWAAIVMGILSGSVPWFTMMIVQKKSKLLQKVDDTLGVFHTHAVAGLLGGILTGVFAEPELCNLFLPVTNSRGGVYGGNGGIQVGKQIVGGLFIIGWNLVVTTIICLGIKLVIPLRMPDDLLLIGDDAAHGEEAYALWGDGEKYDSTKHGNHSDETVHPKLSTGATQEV
The description is as above. The format is cell-based. To be noted: labelled compound; yeast 31019b; substrate of the Km taken from the methods; read-out: apparent Km.

Regarding `CN` [[14C]-methylammonium], the Km (usually the concentration of substrate that gives half-maximal velocity) on QsAMT1.2-like (QsAMT1.2) amounted to 667 µM; at QsAMT3.2-like (QsAMT3.2) it was 0.6 µM.

Values taken from article PMC9823632, “Nitrogen Acquisition and Transport in the Ectomycorrhizal Symbiosis—Insights from the Interaction between an Oak Tree and Pisolithus tinctorius” (Plants, 2022).
